A word on the melting point: it is the temperature, or range, at which the solid turns liquid. Consider `CCCCOc1ccc(C(=O)N[C@@H]2CCc3c(O)ccc(N4CCN(C)CC4)c3C2)cc1` [Example 11, (R)-N-[5-Hydroxy-8-(4-methylpiperazin-1-yl)-1,2,3,4-tetrahydro-2-naphthyl]-4-butoxybenzamide], for which the melting point is 125 °C (dec.).

In turn, `O=C(N[C@@H]1CCc2c(Br)ccc(N3CCNCC3)c2C1)c1ccc(N2CCOCC2)cc1` [Example 17, (R)-N-[5-Bromo-8-(piperazin-1-yl)-1,2,3,4-tetrahydro-2-naphthyl]-4-morpholinobenzamide] came in with a melting point of 228 to 229 °C.

Consider `CN1CCN(c2ccc(Br)c3c2C[C@H](NC(=O)c2ccc(N4CCOCC4)cc2)CC3)CC1` [Example 20, (R)-N-[5-Bromo-8-(4-methylpiperazin-1-yl)-1,2,3,4-tetrahydro-2-naphthyl]-4-morpholinobenzamide], for which the melting point was in the range of 245 to 246 °C.

The molecule `COc1ccc(N2CCN(C)CC2)c2c1CC[C@@H](NC(=O)c1ccc(N3CCOCC3)cc1)C2` [Example 25, (R)-N-[5-Methoxy-8-(4-methylpiperazin-1-yl)-1,2,3,4-tetrahydro-2-naphthyl]-4-morpholinobenzamide] came in with a melting point of 237 to 238 °C.

For the molecule `CN1CCN(c2ccc(O)c3c2C[C@H](NC(=O)c2ccc(C#N)cc2)CC3)CC1` [Example 26, (R)-N-[5-Hydroxy-8-(4-methylpiperazin-1-yl)-1,2,3,4-tetrahydro-2-naphthyl]-4-cyanobenzamide], the melting point is 144 °C.

The molecule `COc1ccc(N2CCN(C)CC2)c2c1CC[C@@H](NC(=O)c1ccc(C(=O)N3CCOCC3)cc1)C2` [Example 27, (R)-N-[5-Methoxy-8-(4-methylpiperazin-1-yl)-1,2,3,4-tetrahydro-2-naphthyl]-4-morpholinocarbonylbenzamide] yielded a melting point of 209 to 210 °C.

In turn, `CN1CCN(c2ccc(Br)c3c2C[C@H](NC(=O)c2ccc(C(=O)N4CCOCC4)cc2)CC3)CC1` [Example 28, (R)-N-[5-Bromo-8-(4-methylpiperazin-1-yl)-1,2,3,4-tetrahydro-2-naphthyl]-4-morpholinocarbonylbenzamide] came in with a melting point of 228 to 230 °C.

Regarding `COc1ccc(C2CCN(C)CC2)c2c1CC[C@@H](NC(=O)c1ccc(N3CCOCC3)cc1)C2` [Example 38, (R)-N-[5-Methoxy-8-(1-methylpiperidin-4-yl)-1,2,3,4-tetrahydro-2-naphthyl]-4-morpholinobenzamide], the melting point was 237 to 242 °C (dec.).

Take `CCc1ccc(N2CCN(C)CC2)c2c1CC[C@@H](NC(=O)c1ccc(N3CCOCC3)cc1)C2` [Example 42, (R)-N-[5-Ethyl-8-(4-methylpiperazin-1-yl)-1,2,3,4-tetrahydro-2-naphthyl]-4-morpholinobenzamide]: the melting point is 234 °C (dec.).

The molecule `CN1CCN(c2ccc(OC(F)F)c3c2C[C@H](NC(=O)c2ccc(N4CCOCC4)cc2)CC3)CC1` [Example 46, (R)-N-[5-Difluoromethoxy-8-(4-methylpiperazin-1-yl)-1,2,3,4-tetrahydro-2-naphthyl]-4-morpholinobenzamide] had a melting point of 222 to 223 °C.

In turn, `CN1CCN(c2ccc(Br)c3c2C[C@H](NC(=O)c2ccc(C(F)(F)F)cc2)CC3)CC1` [Example 48, (R)-N-[5-Bromo-8-(4-methylpiperazin-1-yl)-1,2,3,4-tetrahydro-2-naphthyl]-4-trifluoromethylbenzamide] returned a melting point of 229 to 230 °C.

For `COCc1ccc(N2CCN(C)CC2)c2c1CC[C@@H](NC(=O)c1ccc(N3CCOCC3)cc1)C2` [Example 51, (R)-N-[5-Methoxymethyl-8-(4-methylpiperazin-1-yl)-1,2,3,4-tetrahydro-2-naphthyl]-4-morpholinobenzamide], the melting point is 200 °C (dec.).

With `CN1CCN(c2ccc(O)c3c2C[C@H](NC(=O)c2ccc(N4CCOCC4)cc2)CC3)CC1` [Example 60, (R)-N-[5-Hydroxy-8-(4-methylpiperazin-1-yl)-1,2,3,4-tetrahydro-2-naphthyl]-4-morpholinobenzamide], the melting point was 84 to 88 °C.

As for `Cc1ccc(N2CCNCC2)c2c1CC[C@@H](NC(=O)c1ccc(N3CCOCC3)cc1)C2` [Example 67, (R)-N-[5-Methyl-8-(piperazin-1-yl)-1,2,3,4-tetrahydro-2-naphthyl]-4-morpholinobenzamide], the melting point lay in the range of 207 to 210 °C.

For `Cc1ccc(N2CCN(C)CC2)c2c1CC[C@@H](NC(=O)c1ccc(Cl)cc1)C2` [Example 68, (R)-N-[5-Methyl-8-(4-methylpiperazin-1-yl)-1,2,3,4-tetrahydro-2-naphthyl]-4-chlorobenzamide], the melting point was 210 to 212 °C.

Source of the values: patent publication US6534652B2, “Intermediates for the preparation of substituted 1,2,3,4-tetrahydronaphthalene derivatives” (AstraZeneca AB, priority 1997, dated 2003).
